Experimental data taken from US20220411525A1, “BCMA AS A TARGET FOR T CELL REDIRECTING ANTIBODIES IN B CELL LYMPHOMAS” (Janssen Pharmaceutica NV, priority 2021, published 2022).

Key:
primary CLL cells = assay: BCMA level by flow cytometry on primary CLL cells after γ-secretase inhibition; assay type: cell-based, human; conditions: 100 nM
Protocol: Primary CLL samples were stained for BCMA expression by flow cytometry and compared to isotype controls. […] As provided in FIG. 2A, CLL cells were cultured and basal levels of BCMA were assessed by flow cytometry and compared to isotype controls. (n=25). For FIG. 2B, CLL cells were treated for 24 or 48h with 0nM or 100 nM γ-secretase inhibitor and BCMA was assessed by flow cytometry. Values are represented as fold increase compared to medium control. (n=12-28). FIG. 2C provides basal levels of BCMA compared to isotype control among CLL patients with mutated or unmutated IgVH. (n=4-10). […] (n=4-12) The P value was calculated by Wilcoxon test (FIGS. 2A-2B), Mann Whitney test (FIGS. 2B, 2C, 2D) or paired t test (FIGS. 2E, F). […]
Flow cytometry. […] After antibody staining, samples were washed using PBA and acquired on BD FACS Canto or LSR Fortessa flow cytometer and analysed with FlowJo v10. To quantify number of cells using flow cytometry, 123count eBeads™ Counting Beads (Thermo Fisher Scientific) according to manufacturer's instructions. BCMA molecules per cell were determined by usage of PE Phycoerythrin Fluorescence Quantitation Kit (BD Biosciences).
(§1) BCMA characterization by flow cytometry and quantitative polymerase chain reaction. […] After 24 or 48 h BCMA was detected by flow cytometry as described above. Relative expression was calculated compared to isotype controls. […]

[1] = test system: B cell malignancy cell lines; assay: BCMA mRNA relative to GAPDH by qPCR in cell lines; assay type: cell-based; conditions: 100 nM, 24 h, prior and after γ-secretase inhibition
Protocol: To evaluate whether other malignancies besides multiple myeloma (MM) can potentially be targeted by BCMA directed immunotherapy, B cell malignancy cell lines were assessed for BCMA expression by flow cytometry. […] Per FIG. 1A, B cell malignancy cell lines were cultured and basal levels of BCMA were assessed by flow cytometry and compared to isotype controls. (n=3-8). Dotted line indicates no increase compared to isotype control. In accordance with FIG. 1B, cell lines were treated for 24-48h with 100nM γ-secretase inhibitor or with medium control and BCMA was assessed by flow cytometry. Values are represented as fold increase compared to 0 nM γ-secretase inhibitor. (n=3-12) Dotted line indicates no increase compared to 0 nM γ-secretase inhibitor. […] The P value was calculated by paired t test of Wilcoxon test (FIG. 1A-1B) or simple linear regression (FIG. 1E). […]
Since BCMA is known to be cleaved off by γ-secretase, it was evaluated whether inhibition of this enzyme would lead to enhanced BCMA levels on these B cell lines. […]
as §1

`C[C@H](NC(=O)[C@@H](O)c1cc(F)cc(F)c1)C(=O)N[C@@H]1C(=O)N(C)c2ccccc2-c2ccccc21` [Ly411575] was tested, and the “BCMA level on CLL cells” value (primary CLL cells; 24 h) was “small but significant upregulation of BCMA”, the “BCMA level on CLL cells” value (primary CLL cells; 48 h, compared to 24 h) was “further enhanced” and the “BCMA mRNA levels” value [1] was “remained equal”.
